Results published in patent US11226337B2, “Chemoproteomic profiling of protein electrophilic and oxidative post-translational modifications” (Zenagem, LLC, priority 2017, dated 2022).

Assays:
Assay in all cases: SILAC RP-ABPP
Format in all cases: cell-based
[1] = biological target: T1, ALDOC Fructosebisphosphate aldolase C (P09972) (Homo sapiens, UniProt P09972); conditions: SILAC H/L, HEK293T
T1 construct: shared by both the endogenous and recombinant forms of these proteins; endogenous in cells; host or cells: HEK293T and MDA-MB-231
T1 sequence (P09972 1-364): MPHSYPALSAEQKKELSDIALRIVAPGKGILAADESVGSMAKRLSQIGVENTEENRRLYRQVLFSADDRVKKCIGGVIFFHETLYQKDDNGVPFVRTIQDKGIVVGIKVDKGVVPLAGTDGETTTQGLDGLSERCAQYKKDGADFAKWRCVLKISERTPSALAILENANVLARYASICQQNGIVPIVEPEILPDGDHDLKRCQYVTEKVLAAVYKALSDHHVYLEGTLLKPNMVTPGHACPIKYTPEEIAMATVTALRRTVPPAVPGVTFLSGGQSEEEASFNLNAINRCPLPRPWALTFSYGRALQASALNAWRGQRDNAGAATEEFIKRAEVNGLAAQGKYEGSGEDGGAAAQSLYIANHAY
Outline: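 Heavy SILAC HEK293T or MDA-MB-231 cells were treated with hydrazine probe 1 (3 mM, 0.5 h); light cells received non-clickable hydrazine 3 at the same concentration (enrichment) or probe plus 10× competitor 3 (competition). Lysates were mixed, clicked to biotin-azide and analysed by LC-MS; values are median heavy:light peptide ratios averaged over ≥3 replicates.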

[2] = biological target: T2, APLP2 Amyloidlike protein 2 (Q06481) (Homo sapiens, UniProt Q06481); conditions: SILAC H/L
T2 construct: shared by both the endogenous and recombinant forms of these proteins; endogenous in cells; host or cells: HEK293T and MDA-MB-231
T2 sequence (Q06481 32-763): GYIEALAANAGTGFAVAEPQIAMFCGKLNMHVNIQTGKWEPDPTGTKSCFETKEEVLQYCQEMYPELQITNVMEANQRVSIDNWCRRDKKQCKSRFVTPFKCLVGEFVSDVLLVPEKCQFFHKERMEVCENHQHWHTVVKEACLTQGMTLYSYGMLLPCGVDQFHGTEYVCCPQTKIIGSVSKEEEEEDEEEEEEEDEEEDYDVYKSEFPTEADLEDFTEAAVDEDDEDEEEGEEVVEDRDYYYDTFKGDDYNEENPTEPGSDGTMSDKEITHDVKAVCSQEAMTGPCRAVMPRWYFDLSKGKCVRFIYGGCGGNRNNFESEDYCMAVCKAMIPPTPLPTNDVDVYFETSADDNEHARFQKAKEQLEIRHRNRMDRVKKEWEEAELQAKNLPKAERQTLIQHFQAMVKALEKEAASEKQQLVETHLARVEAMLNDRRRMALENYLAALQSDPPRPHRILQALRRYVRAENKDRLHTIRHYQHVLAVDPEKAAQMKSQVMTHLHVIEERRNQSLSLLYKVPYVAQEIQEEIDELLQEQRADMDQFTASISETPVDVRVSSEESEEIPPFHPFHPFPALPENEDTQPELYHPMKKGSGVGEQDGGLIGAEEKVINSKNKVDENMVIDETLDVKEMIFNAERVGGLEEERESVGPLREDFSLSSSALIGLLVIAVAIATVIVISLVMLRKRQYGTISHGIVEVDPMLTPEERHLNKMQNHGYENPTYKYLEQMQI

[3] = biological target: T3, EPDR1 Mammalian ependyminrelated (Q9UM22) (Homo sapiens, UniProt Q9UM22); conditions: SILAC H/L, MDA-MB-231
T3 construct: shared by both the endogenous and recombinant forms of these proteins; endogenous in cells; host or cells: HEK293T and MDA-MB-231
T3 sequence (Q9UM22 38-224): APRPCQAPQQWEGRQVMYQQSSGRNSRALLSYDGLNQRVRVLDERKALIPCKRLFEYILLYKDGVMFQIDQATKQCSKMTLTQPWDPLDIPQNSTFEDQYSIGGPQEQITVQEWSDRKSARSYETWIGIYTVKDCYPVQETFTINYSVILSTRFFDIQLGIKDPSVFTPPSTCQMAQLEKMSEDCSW

[4] = biological target: T4, PLD3 Phospholipase D3 (Q8IV08) (Homo sapiens, UniProt Q8IV08); conditions: SILAC H/L, HEK293T
T4 construct: shared by both the endogenous and recombinant forms of these proteins; endogenous in cells; host or cells: HEK293T and MDA-MB-231
T4 sequence (Q8IV08 1-490): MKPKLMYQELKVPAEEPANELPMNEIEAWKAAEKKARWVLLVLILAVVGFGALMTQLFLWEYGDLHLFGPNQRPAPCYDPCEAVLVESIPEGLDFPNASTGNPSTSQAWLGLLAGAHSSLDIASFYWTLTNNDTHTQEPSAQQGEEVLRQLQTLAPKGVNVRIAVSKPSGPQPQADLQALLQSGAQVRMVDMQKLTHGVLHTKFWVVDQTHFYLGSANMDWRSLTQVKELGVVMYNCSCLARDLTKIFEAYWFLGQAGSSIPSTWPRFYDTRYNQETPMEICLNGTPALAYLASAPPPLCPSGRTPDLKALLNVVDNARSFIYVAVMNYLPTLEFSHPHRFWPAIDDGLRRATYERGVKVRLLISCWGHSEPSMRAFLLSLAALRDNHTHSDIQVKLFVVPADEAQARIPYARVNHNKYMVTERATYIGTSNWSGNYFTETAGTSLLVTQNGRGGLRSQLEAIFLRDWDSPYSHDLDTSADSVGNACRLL

Row | enrichment ratioavg ([1]; probe 2 1 mM 0.5 h vs probe 4) | competition ratioavg ([1]; probe 2 vs probe 2+10x probe 4) | enrichment ratioavg ([2]; probe 2 1 mM 0.5 h vs probe 4, single experiment, cell line not given) | enrichment ratioavg ([3]; probe 2 1 mM 0.5 h vs probe 4) | competition ratioavg ([3]; probe 2 vs probe 2+10x probe 4) | SMILES | enrichment ratioavg ([1]; probe 1 3 mM 0.5 h vs probe 3) | competition ratioavg ([1]; probe 1 vs probe 1+10x probe 3) | enrichment ratioavg ([2]; probe 1 3 mM 0.5 h vs probe 3, MDA-MB-231) | competition ratioavg ([2]; probe 1 vs probe 1+10x probe 3, MDA-MB-231) | enrichment ratioavg ([3]; probe 1 3 mM 0.5 h vs probe 3) | competition ratioavg ([3]; probe 1 vs probe 1+10x probe 3) | enrichment ratioavg ([4]; probe 1 3 mM 0.5 h vs probe 3) | competition ratioavg ([4]; probe 1 vs probe 1+10x probe 3) | enrichment ratioavg ([4]; probe 2 1 mM 0.5 h vs probe 4) | competition ratioavg ([4]; probe 2 vs probe 2+10x probe 4)
1 |  |  |  |  |  | C#CCNN.Cl [probe 1, prop-2-yn-1-ylhydrazine hydrochloride] | 16 | 3 | 19 | 7 | 20 | 20 | 12 | 2 |  | 
2 | 14 | 5 | 20 | 20 | 5 | C#CCCNC(=O)c1ccc(NN)cc1.Cl [probe 2, N-(but-3-yn-1-yl)-4-hydrazinylbenzamide hydrochloride] |  |  |  |  |  |  |  |  | 5 | 2
